Legend:
MAGL [1] = target: T1, MAGL (Homo sapiens, UniProt Q99685); experiment: In vitro competitive activity-based protein profiling, MAGL, human; conditions: for inhibition at 1 µM: read-out: MAGL % inh. 1 μM (human); for inhibition at 10 µM: read-out: MAGL % inh. (human) at 10 uM
T1 sequence (Q99685 1-303): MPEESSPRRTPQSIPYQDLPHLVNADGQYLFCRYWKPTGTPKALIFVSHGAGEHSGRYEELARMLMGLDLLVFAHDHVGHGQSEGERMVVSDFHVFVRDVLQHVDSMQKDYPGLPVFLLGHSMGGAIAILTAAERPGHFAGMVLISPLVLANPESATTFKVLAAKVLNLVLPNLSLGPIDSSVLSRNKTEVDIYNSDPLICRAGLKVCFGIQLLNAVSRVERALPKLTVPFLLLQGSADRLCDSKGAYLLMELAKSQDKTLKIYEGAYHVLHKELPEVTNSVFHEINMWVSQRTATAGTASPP

MAGL [2] = target: T2, MAGL (Mus musculus, UniProt O35678); experiment: In vitro competitive activity-based protein profiling, MAGL, mouse; conditions: read-out: MAGL % inh. 1 μM (mouse)
T2 sequence (O35678 1-303): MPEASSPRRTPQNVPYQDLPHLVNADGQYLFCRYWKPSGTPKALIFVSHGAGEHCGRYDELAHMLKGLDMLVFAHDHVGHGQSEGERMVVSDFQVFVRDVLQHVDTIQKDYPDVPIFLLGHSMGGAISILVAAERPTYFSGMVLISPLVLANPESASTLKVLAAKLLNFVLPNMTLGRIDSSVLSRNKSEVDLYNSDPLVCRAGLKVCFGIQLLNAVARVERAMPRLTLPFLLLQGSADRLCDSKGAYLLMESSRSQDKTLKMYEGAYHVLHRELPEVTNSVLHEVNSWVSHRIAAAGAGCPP

SMILES | inhibition at 1 µM (MAGL [1]) [%] | inhibition at 1 µM (MAGL [2]) [%] | inhibition at 10 µM (MAGL [1]) [%]
O=C(O)c1ccn(C(=O)N2C[C@H]3C[C@H](Oc4cccc(-c5nccs5)c4)C[C@H]3C2)n1 [Example 261, 1-(trans-5-(3-(thiazol-2-yl)phenoxy)octa-hydrocyclopenta[c]pyrrole-2-carbonyl)-1H-pyrazole-3-carboxylic acid] | > 75 | > 75 | 
CNC(=O)c1ccn(C(=O)N2C[C@H]3C[C@@H](N(C)Cc4ccccc4C(F)(F)F)C[C@H]3C2)n1 [Example 434, N-methyl-1-(cis-5-(methyl(2-(trifluoromethyl)benzyl)amino)octa-hydrocyclopenta[c]pyrrole-2-carbonyl)-1H-pyrazole-3-carboxamide] |  | > 75 | 
CNC(=O)c1ccn(C(=O)N2CCN(Cc3cccc(Oc4ccccc4)c3)CC2)n1 [Example 423, N-methyl-1-(4-(3-phenoxybenzyl)piperazine-1-carbonyl)-1H-pyrazole-3-carboxamide] |  | > 75 | 
NC(=O)c1ccn(C(=O)N2CCC3(CCN(Cc4cccc(C(F)(F)F)c4)C3)C2)n1 (centres unmarked) [Example 429, 1-(7-(3-(trifluoromethyl)benzyl)-2,7-diazaspiro[4.4]non-ane-2-carbonyl)-1H-pyrazole-3-carboxamide] |  | > 75 | 
Cc1cc(CN2CCCC23CCN(C(=O)n2ccc(C(=O)O)n2)CC3)cc(C(F)(F)F)c1 [Example 303, 1-(1-(3-methyl-5-(trifluoromethyl)benzyl)-1,8-diazaspiro[4.5]decane-8-carbonyl)-1H-pyrazole-3-carboxylic acid] |  | > 75 | 
CNC(=O)c1ccn(C(=O)N2C[C@H]3C[C@@H](N(C)Cc4ccc(C(F)(F)F)cc4)C[C@H]3C2)n1 [Example 439, N-methyl-1-(cis-5-(methyl(4-(trifluoromethyl)benzyl)amino)octa-hydrocyclopenta[c]pyrrole-2-carbonyl)-1H-pyrazole-3-carboxamide] |  | > 75 | 
O=C(O)c1ccn(C(=O)N2C[C@H]3C[C@H](OCc4cccc(-c5cscn5)c4Cl)C[C@H]3C2)n1 [Example 447, 1-(trans-5-((2-chloro-3-(thiazol-4-yl)benzyl)oxy)octa-hydrocyclopenta[c]pyrrole-2-carbonyl)-1H-pyrazole-3-carboxylic acid] |  |  | > 75
CNC(=O)c1ccn(C(=O)N2CC3CN(Cc4ccc(N5CCOCC5)cc4C(F)(F)F)CC3C2)n1 (centres unmarked) [Example 440, N-methyl-1-(5-(4-morpholino-2-(trifluoromethyl)benzyl)octahydro-pyrrolo[3,4-c]pyrrole-2-carbonyl)-1H-pyrazole-3-carboxamide] |  | > 75 | 
CNC(=O)c1ccn(C(=O)N2CC3CN(Cc4cc(Cl)ccc4Cl)CC3C2)n1 (centres unmarked) [Example 430, 1-(5-(2,5-dichlorobenzyl)octa-hydropyrrolo[3,4-c]pyrrole-2-carbonyl)-N-methyl-1H-pyrazole-3-carboxamide] |  | > 75 | 
NC(=O)c1ccn(C(=O)N2CCC3(CCN(Cc4ccc(N5CCOCC5)cc4C(F)(F)F)C3)C2)n1 (centres unmarked) [Example 436, 1-(7-(4-morpholino-2-(trifluoromethyl)benzyl)-2,7-diazaspiro[4.4]non-ane-2-carbonyl)-1H-pyrazole-3-carboxamide] |  | > 75 | 
Cc1cn(C(=O)N2CCN(Cc3cccc(Oc4ccc(Cl)cc4)c3)C[C@@H]2C)nc1C(=O)O [Example 442, (S)-1-(4-(3-(4-chlorophenoxy)benzyl)-2-methylpiperazine-1-carbonyl)-4-methyl-1H-pyrazole-3-carboxylic acid] |  | > 75 | 
CNC(=O)c1ccn(C(=O)N2CCC3(CCN(Cc4cc(Cl)ccc4Cl)C3)C2)n1 (centres unmarked) [Example 428, 1-(7-(2,5-dichlorobenzyl)-2,7-diazaspiro[4.4]non-ane-2-carbonyl)-N-methyl-1H-pyrazole-3-carboxamide] |  | > 75 | 
O=C(O)c1ccn(C(=O)N2CCC3(CCCN3Cc3cc(Cl)cc(N4CCCC4)c3)CC2)n1 [Example 344, 1-(1-(3-chloro-5-(pyrrolidin-1-yl)benzyl)-1,8-diazaspiro[4.5]decane-8-carbonyl)-1H-pyrazole-3-carboxylic acid] |  | > 75 | 
CC(C)COc1cccc(O[C@H]2C[C@@H]3CN(C(=O)n4ccc(C(=O)O)n4)C[C@@H]3C2)c1Cl [Example 448, 1-(trans-5-(2-chloro-3-isobutoxyphenoxy)octahydrocyclopenta [c]pyrrole-2-carbonyl)-1H-pyrazole-3-carboxylic acid] |  | > 75 | 
O=C(O)c1ccn(C(=O)N2C[C@H]3C[C@H](NCc4cccc(-c5ccccc5)c4)C[C@H]3C2)n1 [Example 273, 1-(trans-5-(([1,1′-biphenyl]-3-ylmethyl)amino)octahydrocyclopenta [c]pyrrole-2-carbonyl)-1H-pyrazole-3-carboxylic acid] |  |  | > 75
O=C(O)c1ccn(C(=O)N2C[C@H]3C[C@H](Oc4cccc(-c5cscn5)c4Cl)C[C@H]3C2)n1 [Example 446, 1-(trans-5-(2-chloro-3-(thiazol-4-yl)phenoxy)octa-hydrocyclopenta[c]pyrrole-2-carbonyl)-1H-pyrazole-3-carboxylic acid] |  | > 75 | 
NC(=O)c1ccn(C(=O)N2CCC3(CCN(Cc4ccc(Cl)cc4)C3)C2)n1 (centres unmarked) [Example 421, 1-(7-(4-chlorobenzyl)-2,7-diazaspiro[4.4]non-ane-2-carbonyl)-1H-pyrazole-3-carboxamide] |  | > 75 | 
CNC(=O)c1ccn(C(=O)N2CCN(Cc3ccc(Cl)cc3)CC2)n1 [Example 420, 1-(4-(4-chlorobenzyl)piper-azine-1-carbonyl)-N-methyl-1H-pyrazole-3-carboxamide] |  | > 75 | 

The remaining lines, values ahead:

inhibition at 1 µM (MAGL [1]) [%] | inhibition at 1 µM (MAGL [2]) [%] | inhibition at 10 µM (MAGL [1]) [%] | SMILES
> 75 | > 75 |  | O=C(O)c1nn(C(=O)N2CCN(Cc3cc(F)cc(Oc4ccc(Cl)cc4)c3)CC2)cc1C(F)(F)F [Example 408]
 | > 75 |  | O=C(O)c1nn(C(=O)N2CCN(Cc3ccc(C(F)(F)F)cc3N3CCCC3)CC2)cc1Cl [Example 443, 4-chloro-1-(4-(2-(pyrrolidin-1-yl)-4-(trifluoromethyl)benzyl)piperazine-1-carbonyl)-1H-pyrazole-3-carboxylic acid]
> 75 | > 75 |  | Cc1c(COC2CCN(C(=O)n3ccc(C(=O)O)n3)CC2)cccc1C(F)(F)F [Example 235, 1-(4-((2-methyl-3-(trifluoromethyl)benzyl)oxy)piper-idine-1-carbonyl)-1H-pyrazole-3-carboxylic acid]
 | > 75 |  | CNC(=O)c1ccn(C(=O)N2CC3CN(Cc4ccc(C(F)(F)F)cc4)CC3C2)n1 (centres unmarked) [Example 425, N-methyl-1-(5-(4-(trifluoromethyl)benzyl)octahydro-pyrrolo[3,4-c]pyrrole-2-carbonyl)-1H-pyrazole-3-carboxamide]
 | > 75 |  | NC(=O)c1ccn(C(=O)N2CCN(Cc3cccc(C4(O)CCOCC4)c3)CC2)n1 [Example 237, 1-(4-(3-(4-hydroxytetrahydro-2H-pyran-4-yl)benzyl)piperazine-1-carbonyl)-1H-pyrazole-3-carboxamide]
 | > 75 |  | CNC(=O)c1ccn(C(=O)N2CC3CN(Cc4cc(Cl)cc(C(F)(F)F)c4)CC3C2)n1 (centres unmarked) [Example 437, 1-(5-(3-chloro-5-(trifluoromethyl)benzyl)octahydro-pyrrolo[3,4-c]pyrrole-2-carbonyl)-N-methyl-1H-pyrazole-3-carboxamide]
 | > 75 |  | CNC(=O)c1ccn(C(=O)N2CC3CN(Cc4cccc(C(F)(F)F)c4)CC3C2)n1 (centres unmarked) [Example 432, N-methyl-1-(5-(3-(trifluoromethyl)benzyl)octahydro-pyrrolo[3,4-c]pyrrole-2-carbonyl)-1H-pyrazole-3-carboxamide]
 | > 75 |  | CNC(=O)c1ccn(C(=O)N2CCC3(CCN(Cc4cc(Cl)cc(C(F)(F)F)c4)C3)C2)n1 (centres unmarked) [Example 435, 1-(7-(3-chloro-5-(trifluoromethyl)benzyl)-2,7-diazaspiro[4.4]non-ane-2-carbonyl)-N-methyl-1H-pyrazole-3-carboxamide]
 | > 75 |  | O=C(O)c1nn(C(=O)N2CCN(Cc3cccc(C(F)(F)F)c3N3CCOCC3)CC2)cc1Cl [Example 449, 4-chloro-1-(4-(2-morpholino-3-(trifluoromethyl)benzyl)piperazine-1-carbonyl)-1H-pyrazole-3-carboxylic acid]
 | 50 to 75 |  | C[C@H]1CC(N(C)Cc2ccc(C(F)(F)F)cc2N2CCCC2)CCN1C(=O)n1cc(Cl)c(C(=O)O)n1 (stereo partly drawn) [Example 33, 4-Chloro-1-((2S)-2-methyl-4-(methyl(2-(pyrrolidin-1-yl)-4-(trifluoromethyl)benzyl)amino)piperidine-1-carbonyl)-1H-pyrazole-3-carboxylic Acid]
 | > 75 |  | COc1cccc(O[C@H]2C[C@@H]3CN(C(=O)n4ccc(C(=O)O)n4)C[C@@H]3C2)c1Cl [Example 445, 1-(trans-5-(2-chloro-3-methoxyphenoxy)octahydrocyclopenta [c]pyrrole-2-carbonyl)-1H-pyrazole-3-carboxylic acid]

Source: US10266497B2 (ABIDE THERAPEUTICS, INC., priority 2017, dated 2019)
